Test results published in patent publication US10633350B2, “Diphenyl derivatives and uses thereof” (NOVARTIS AG, priority 2017, dated 2020).

How the values were obtained:
[1] = test system: FoxO3a; test: FoxO3a inhibition assay (GFP-FoxO3a nuclear to cytoplasmic translocation) in U2OS GFP-FoxO3a H212R reporter cells; format: cell-based; conditions: Homo sapiens, 0.5 h, serum starved overnight, 30 minutes compound treatment, ratio of nuclear to cytosolic GFP intensity, AC50 = concentration that results in 50% activation or inhibition, read-out: FoxO AC50
Method in brief: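 Serum-starved (overnight) cells treated with compounds at various doses for 30 min, then fixed in 4% paraformaldehyde and stained overnight at 4 °C for pAkt S473 with Hoechst nuclear counterstain; high-content imaging. FoxO3a readout: nuclear/cytosolic GFP ratio (%); Akt readout: total cellular pAkt intensity (%); DMSO = 0% activity.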

[2] = test system: Akt; test: Akt activation assay (Phospho-AKT (Ser473) antibody staining) in U2OS GFP-FoxO3a H212R reporter cells; format: cell-based; conditions: Homo sapiens, 0.5 h, serum starved overnight, 30 minutes compound treatment, total cellular intensity of Phospho-Akt (Ser473) antibody staining, AC50 = concentration that results in 50% activation or inhibition
Procedure: Phosphorylation of Akt on S473 and FoxO3a nuclear to cytoplasmic translocation were used as readouts of PI3K/Akt/mTOR pathway activation downstream of growth factor signaling.
Reporter cell line. U2OS GFP-FoxO3a H212R reporter cell line was established by transducing U2OS cells with the retroviral plasmid pLEGFP-C1 containing FoxO3a H212R transgene and selecting for G418 resistant clones.
Reporter assay. U2OS GFP-FoxO3a H212R cells were plated in 384-well plates at 4000 cells per well in 30 microliters of McCoy's 5A medium containing 10% FBS. On day 1 the cells were washed with serum free medium and serum starved overnight. On day 2 the cells were treated with different doses of the compounds for 30 minutes, fixed with 4% Paraformaldehyde for 1 hour and stained with Phospho-AKT (Ser473) antibody (Cell Signaling Technology, catalog #4060) overnight at 4° C. After nuclei staining with Hoechst 33342 (Life Technologies, catalog # H3570) the plates were imaged with InCell 2000 (GE Healthcare Bio-Sciences). FoxO3a inhibition activity is calculated as the ratio of nuclear to cytosolic GFP intensity in percent. Akt activation is measured as the total cellular intensity of Phospho-Akt antibody staining in percent. DMSO control is set as 0% activity.

## Cc1cc(C(N)=O)nn1-c1ccc(Cc2ccc(-c3ccnc(CN(C)C)c3)cc2)cc1 [Example 5-4, 1-(4-(4-(2-((dimethylamino)methyl)pyridin-4-yl)benzyl)phenyl)-5-methyl-1H-pyrazole-3-carboxamide]
[1]
  AC50: 160 nM
[2]
  AC50: 789 nM

## Cc1nc(C(N)=O)nn1-c1ccc(Cc2ccc(-c3ccc(CC4C[C@@H]5CN(C)C[C@@H]5C4)cc3)cc2)cc1 (stereo partly drawn) [Example 41, 5-methyl-1-(4-((4′-(((3aR,6aS)-2-methyloctahydrocyclopenta[c]pyrrol-5-yl)methyl)-[1,1′-biphenyl]-4-yl)methyl)phenyl)-1H-1,2,4-triazole-3-carboxamide]
[1]
  AC50: 114 nM
[2]
  AC50: 91 nM

## Cc1nc(C(N)=O)nn1-c1ccc(Cc2ccc(-c3ccc(CN4CCC(F)(F)C4)cc3)cc2)cc1 [Example 38-2]
[1]
  AC50: 48 nM
[2]
  AC50: 230 nM

## Cc1nc(C(N)=O)nn1-c1ccc(Cc2ccc(C#CC3CCN(C)CC3)cc2)cc1 [Example 54, 5-methyl-1-(4-(4-((1-methylpiperidin-4-yl)ethynyl)benzyl)phenyl)-1H-1,2,4-triazole-3-carboxamide]
[1]
  AC50: 248 nM
[2]
  AC50: 528 nM

## Cc1nc(C(N)=O)nn1-c1ccc(Cc2ccc(-c3ccc(C(C)(C)O)nc3)cc2)cc1 [Example 46, 1-(4-(4-(6-(2-hydroxypropan-2-yl)pyridin-3-yl)benzyl)phenyl)-5-methyl-1H-1,2,4-triazole-3-carboxamide]
[1]
  AC50: 234 nM
[2]
  AC50: 1160 nM

## Cc1nc(C(N)=O)nn1-c1ccc(Cc2ccc(-c3ccc(CN4CCCC(F)(F)C4)cc3)cc2)cc1 [Example 38-9]
[1]
  AC50: 13 nM
[2]
  AC50: 11 nM

## Cc1cc(C(N)=O)nn1-c1ccc(Cc2ccc(-c3ccc(CN4CCCC4)nc3)cc2)cc1 [Example 5-5, 5-methyl-1-(4-(4-(6-(pyrrolidin-1-ylmethyl)pyridin-3-yl)benzyl)phenyl)-1H-pyrazole-3-carboxamide]
[1]
  AC50: 152 nM
[2]
  AC50: 426 nM

## Cc1cc(C(N)=O)nn1-c1ccc(C(C)(C)c2ccc(-c3ccc4[nH]ncc4c3)cc2)cc1 [Example 6-4, 1-(4-(2-(4-(1H-indazol-5-yl)phenyl)propan-2-yl)phenyl)-5-methyl-1H-pyrazole-3-carboxamide]
[1]
  AC50: 517 nM
[2]
  AC50: 1040 nM

## Cc1cc(C(N)=O)nn1-c1ccc(C(C)(C)c2ccc(-c3ccc(C4(N)COC4)cc3)cc2)cc1 [Example 12, 1-(4-(2-(4′-(3-aminooxetan-3-yl)-[1,1′-biphenyl]-4-yl)propan-2-yl)phenyl)-5-methyl-1H-pyrazole-3-carboxamide]
[1]
  AC50: 93 nM
[2]
  AC50: 283 nM

## Cc1cc(C(N)=O)nn1-c1ccc(Cc2ccc(C3CCN(C)CC3)cc2)cc1 [Example 4, 5-methyl-1-(4-(4-(1-methylpiperidin-4-yl)benzyl)phenyl)-1H-pyrazole-3-carboxamide]
[1]
  AC50: 325 nM
[2]
  AC50: 1220 nM

## Cc1cc(C(N)=O)nn1-c1ccc(Cc2ccc(-c3ccc(CNCCO)cc3)cc2)cc1 [Example 16-2]
[1]
  AC50: 138 nM
[2]
  AC50: 426 nM

## Cc1nc(C(N)=O)nn1-c1ccc(Cc2ccc(-c3ccc(C(C)(C)CO)cc3)cc2)cc1 [Example 48, 1-(4-((4′-(1-hydroxy-2-methylpropan-2-yl)-[1,1′-biphenyl]-4-yl)methyl)phenyl)-5-methyl-1H-1,2,4-triazole-3-carboxamide]
[1]
  AC50: 51 nM
[2]
  AC50: 160 nM

## Cc1cc(C(N)=O)nn1-c1ccc(Cc2ccc(-c3ccnc(CN4CCNCC4)c3)cc2)cc1 [Example 31-2]
[1]
  AC50: 373 nM
[2]
  AC50: 1620 nM

## Cc1nc(C(N)=O)nn1-c1ccc(C(C)(C)c2ccc(-c3cnn(C)c3)cc2)cc1 [Example 13-8]
[1]
  AC50: 664 nM
[2]
  AC50: 1750 nM

## Cc1nc(C(N)=O)nn1-c1ccc(Cc2ccc(-c3ccc(CN4CCC(CN(C)C)CC4)cc3)cc2)cc1 [Example 39-1, 1-(4-((4′-((4-((dimethylamino)methyl)piperidin-1-yl)methyl)-[1,1′-biphenyl]-4-yl)methyl)phenyl)-5-methyl-1H-1,2,4-triazole-3-carboxamide]
[1]
  AC50: 195 nM
[2]
  AC50: 615 nM

## Cc1nc(C(N)=O)nn1-c1ccc(C(C)(C)c2ccc(Cl)cc2)cc1 [Example 1, 1-(4-(2-(4-chlorophenyl)propan-2-yl)phenyl)-5-methyl-1H-1,2,4-triazole-3-carboxamide]
[1]
  AC50: 576 nM
[2]
  AC50: 1550 nM

## Cc1cc(C(N)=O)nn1-c1ccc(Cc2ccc3c(c2)OCc2ccccc2-3)cc1 [Example 2, 1-(4-((6H-benzo[c]chromen-3-yl)methyl)phenyl)-5-methyl-1H-pyrazole-3-carboxamide]
[1]
  AC50: 137 nM
[2]
  AC50: 326 nM

## Cc1nc(C(N)=O)nn1-c1ccc(C(C)(C)c2ccc(-c3ccc(C#N)nc3)cc2)cc1 [Example 13-10]
[1]
  AC50: 489 nM
[2]
  AC50: 1180 nM

## Cc1cc(C(N)=O)nn1-c1ccc(C(C)(C)c2ccc(-c3ccccn3)cc2)cc1 [Example 10, 5-methyl-1-(4-(2-(4-(pyridin-2-yl)phenyl)propan-2-yl)phenyl)-1H-pyrazole-3-carboxamide]
[1]
  AC50: 470 nM
[2]
  AC50: 733 nM

## Cc1nc(C(N)=O)nn1-c1ccc(Cc2ccc(C#CC3(O)CCCCC3)cc2)cc1 [Example 55, 1-(4-(4-((1-hydroxycyclohexyl)ethynyl)benzyl)phenyl)-5-methyl-1H-1,2,4-triazole-3-carboxamide]
[1]
  AC50: 96 nM
[2]
  AC50: 1290 nM

## Cc1cc(C(N)=O)nn1-c1ccc(Cc2ccc(-c3ccc(C(=O)N4CCN[C@@H](CO)C4)cc3)cc2)cc1 [Example 28, (R)-1-(4-((4′-(3-(hydroxymethyl)piperazine-1-carbonyl)-[1,1′-biphenyl]-4-yl)methyl)phenyl)-5-methyl-1H-pyrazole-3-carboxamide]
[1]
  AC50: 26 nM
[2]
  AC50: 73 nM

## Cc1nc(C(N)=O)nn1-c1ccc(Cc2ccc(-c3ccc(CN4CCS(=O)(=O)CC4)cc3)cc2)cc1 [Example 39-32]
[1]
  AC50: 48 nM
[2]
  AC50: 85 nM

## Cc1nc(C(N)=O)nn1-c1ccc(Cc2ccc(-c3ccc(CN4CCC5(CC4)COC5)cc3)cc2)cc1 [Example 38-8]
[1]
  AC50: 51 nM
[2]
  AC50: 211 nM

## Cc1cc(C(N)=O)nn1-c1ccc(C(C)(C)c2ccc(-c3ccc(CN4CCCC4)cc3)cc2)cc1 [Example 6-1, 5-methyl-1-(4-(2-(4′-(pyrrolidin-1-ylmethyl)-[1,1′-biphenyl]-4-yl)propan-2-yl)phenyl)-1H-pyrazole-3-carboxamide]
[1]
  AC50: 115 nM
[2]
  AC50: 292 nM

## Cc1cc(C(N)=O)nn1-c1ccc(Cc2ccc(-c3ccc4c(c3)CNC4)cc2)cc1 [Example 3-4, 1-(4-(4-(isoindolin-5-yl)benzyl)phenyl)-5-methyl-1H-pyrazole-3-carboxamide]
[1]
  AC50: 75 nM
[2]
  AC50: 268 nM

## Cc1nc(C(N)=O)nn1-c1ccc(Cc2ccc(-c3ccc(CN4CCC[C@H]4CO)cc3)cc2)cc1 [Example 39-38]
[1]
  AC50: 48 nM
[2]
  AC50: 119 nM

## CCN(CC)Cc1ccc(-c2ccc(Cc3ccc(-n4nc(C(N)=O)cc4C)cc3)cc2)cc1 [Example 3-2, 1-(4-((4′-((diethylamino)methyl)-[1,1′-biphenyl]-4-yl)methyl)phenyl)-5-methyl-1H-pyrazole-3-carboxamide]
[1]
  AC50: 236 nM
[2]
  AC50: 341 nM

## Cc1cc(C(N)=O)nn1-c1ccc(Cc2ccc(-c3ccncc3)cc2)cc1 [Example 3-5, 5-methyl-1-(4-(4-(pyridin-4-yl)benzyl)phenyl)-1H-pyrazole-3-carboxamide]
[1]
  AC50: 61 nM
[2]
  AC50: 156 nM

## Cc1cc(C(N)=O)nn1-c1ccc(Cc2ccc(-c3ccc(CN4CCN(CCO)CC4)nc3)cc2)cc1 [Example 32, 1-(4-(4-(6-((4-(2-hydroxyethyl)piperazin-1-yl)methyl)pyridin-3-yl)benzyl)phenyl)-5-methyl-1H-pyrazole-3-carboxamide]
[1]
  AC50: 315 nM
[2]
  AC50: 647 nM

## Cc1cc(C(N)=O)nn1-c1ccc(Cc2ccc(-c3ccc(S(C)(=O)=O)cc3)cc2)cc1 [Example 3-6, 5-methyl-1-(4-((4′-(methylsulfonyl)-[1,1′-biphenyl]-4-yl)methyl)phenyl)-1H-pyrazole-3-carboxamide]
[1]
  AC50: 28 nM
[2]
  AC50: 66 nM

## Cc1nc(C(N)=O)nn1-c1ccc(Cc2ccc(-c3cc(C(C)(C)O)ccn3)cc2)cc1 [Example 53, 1-(4-(4-(4-(2-hydroxypropan-2-yl)pyridin-2-yl)benzyl)phenyl)-5-methyl-1H-1,2,4-triazole-3-carboxamide]
[1]
  AC50: 2420 nM
[2]
  AC50: 8230 nM

## Cc1cc(C(N)=O)nn1-c1ccc(Cc2ccc(-c3ccc(CN4CCN(C)CC4)cc3)cc2)cc1 [Example 3-12, 5-methyl-1-(4-((4′-((4-methylpiperazin-1-yl)methyl)-[1,1′-biphenyl]-4-yl)methyl)phenyl)-1H-pyrazole-3-carboxamide]
[1]
  AC50: 36 nM
[2]
  AC50: 122 nM
